Data as given in patent US5859257A, “Isoxazole compounds as cyclooxygenase inhibitors” (G. D. Searle & Co., priority 1996, dated 1999).

Columns and labels:
COX-2 = experiment: Evaluation of COX-2 activity in vitro (PGE2 ELISA, recombinant enzyme); format: biochemical, human or murine; conditions: arachidonic acid 10 μM, pH 8.0, pre-incubation 10-20 minutes
Experimental: The COX-2 inhibition activity of the compounds of this invention illustrated in the Examples was determined by the following methods.
(§1) a. Preparation of recombinant COX baculoviruses
(§2) Recombinant COX-1 and COX-2 were prepared as scribed by Gierse et al, [J. Biochem., 305, 479-84 (1995)]. […] Recombinant baculoviruses were isolated by transfecting 4 μg of baculovirus transfer vector DNA into SF9 insect cells (2×10^8) along with 200 ng of linearized baculovirus plasmid DNA by the calcium phosphate method. See M. D. Summers and G. E. Smith, A Manual of Methods for Baculovirus Vectors and Insect Cell Culture Procedures, Texas Agric. Exp. Station Bull. 1555 (1987). Recombinant viruses were purified by three rounds of plaque purification and high titer (10^7 -10^8 pfu/mL) stocks of virus were prepared. For large scale production, SF9 insect cells were infected in 10 liter fermentors (0.5×10^6 /mL) with the recombinant baculovirus stock such that the multiplicity of infection was 0.1. After 72 hours the cells were centrifuged and the cell pellet homogenized in Tris/Sucrose (50 mM: 25%, pH 8.0) containing 1% 3-[(3-cholamidopropyl)dimethylammonio]-1-propanesulfonate (CHAPS). The nomogenate was centrifuged at 10,000×G for 30 minutes, and the resultant supernatant was stored at -80° C. before being assayed for COX activity.
(§3) COX activity was assayed as PGE2 formed/μg protein/time using an ELISA to detect the prostaglandin released. CHAPS-solubilized insect cell membranes containing the appropriate COX enzyme were incubated in a potassium phosphate buffer (50 mM, pH 8.0) containing epinephrine, phenol, and heme with the addition of arachidonic acid (10 μM). […] Any reaction between the arachidonic acid and the enzyme was stopped after ten minutes at 37° C./room temperature by transferring 40 μl of reaction mix into 160 μl ELISA buffer and 25 μM indomethacin. The PGE2 formed was measured by standard ELISA technology (Cayman Chemical).

COX-1 = experiment: Evaluation of COX-1 activity in vitro (PGE2 ELISA, recombinant enzyme); format: biochemical, human or murine; conditions: arachidonic acid 10 μM, pH 8.0, pre-incubation 10-20 minutes
Experimental: as §1, §2, §3

rat paw edema = experiment: Rat Carrageenan Foot Pad Edema Test; format: in vivo, Male Sprague-Dawley rats; conditions: @ 10 mg/kg body weight, oral, 3 h after carrageenan
Experimental: Rat Carrageenan Foot Pad Edema Test
Male Sprague-Dawley rats were selected in each group so that the average body weight was as close as possible. Rats were fasted with free access to water for over sixteen hours prior to the test. […] One hour later a subplantar injection of 0.1 mL of 1% solution of carrageenan/sterile 0.9% saline was administered and the volume of the injected foot was measured with a displacement plethysmometer connected to a pressure transducer with a digital indicator. Three hours after the injection of the carrageenan, the volume of the foot was again measured.

| SMILES | IC50 (COX-2) [µM] | IC50 (COX-1) [µM] | RAT PAW EDEMA % Inhibition (rat paw edema) [%] |
| --- | --- | --- | --- |
| Cc1noc(-c2ccc(S(N)(=O)=O)cc2)c1-c1ccccc1 [Example 23, 4-[3-Methyl-4-phenylisoxazol-5-yl]benzenesulfonamide] | 0.2 | 56 |  |
| Cc1noc(-c2cccc(Cl)c2)c1-c1ccc(S(N)(=O)=O)cc1 [Example 24, 4-[5-(3-Chlorophenyl)-3-methylisoxazol-4-yl]benzenesulfonamide] | 8.4 | > 100 |  |
| NS(=O)(=O)c1ccc(-c2c(CO)noc2-c2ccccc2)cc1 [Example 25, 4-[3-Hydroxymethyl-5-phenylisoxazol-4-yl]benzenesulfonamide] | 79 | > 100 |  |
| NS(=O)(=O)c1ccc(-c2c(CC(=O)O)noc2-c2ccccc2)cc1 [Example 26, 4-(4-Aminosulfonylphenyl)-5-phenyl-isoxazole-3-acetic acid] | 69.5 | > 100 |  |
| Cc1noc(-c2ccccc2)c1-c1ccc(S(C)(=O)=O)cc1 [Example 27, 3-Methyl-4-(4-methylsulfonylphenyl)-5-phenylisoxazole] | 46 | > 100 |  |
| NS(=O)(=O)c1ccc(-c2c(CC(O)c3ccc(Cl)cc3)noc2-c2ccccc2)cc1 (stereo not drawn) [Example 28, 4-[3-[2-(4-Chlorophenyl)-2-hydroxyethyl]-5-phenylisoxazol-4-yl]benzenesulfonamide] | 0.1 | > 100 |  |
| CCc1noc(-c2ccc(F)cc2)c1-c1ccc(S(N)(=O)=O)cc1 [Example 30, 4-[3-Ethyl-5-(4-fluorophenyl)isoxazol-4-yl]benzenesulfonamide] | < 0.1 | 41 |  |
| CCc1noc(-c2cccc(F)c2)c1-c1ccc(S(N)(=O)=O)cc1 [Example 31, 4-[3-Ethyl-5-(3-fluorophenyl)isoxazol-4-yl]benzenesulfonamide] | 1.3 | > 100 |  |
| CCc1noc(-c2ccccc2F)c1-c1ccc(S(N)(=O)=O)cc1 [Example 33, 4-[3-Ethyl-5-(2-fluorophenyl)isoxazol-4-yl]benzenesulfonamide] | < 0.1 | 26 |  |
| NS(=O)(=O)c1ccc(-c2c(-c3ccccc3)noc2COCC(=O)O)cc1 [Example 35, [[4-[4-(Aminosulfonyl)phenyl]-3-phenylisoxazol-5-yl]-methoxy]acetic acid] | 5.1 | > 100 |  |
| NS(=O)(=O)c1ccc(-c2c(-c3ccccc3)noc2CCCC(=O)O)cc1 [Example 36] | 1.5 | > 100 |  |
| N#Cc1onc(-c2ccccc2)c1-c1ccc(S(N)(=O)=O)cc1 [Example 37, 4-[5-Cyano-3-phenylisoxazol-4-yl]benzenesulfonamide] | 20 | > 100 |  |
| NS(=O)(=O)c1ccc(-c2c(-c3ccccc3)noc2Cl)cc1 [Example 38, 4-[5-Chloro-3-phenylisoxazol-4-yl]benzenesulfonamide] | < 0.1 | > 100 |  |
| NS(=O)(=O)c1ccc(-c2c(-c3ccccc3)noc2OS(=O)(=O)C(F)(F)F)cc1 [Example 39, 4-[5-Trifluoromethansulfonoxy-3-phenylisoxazol-4-yl]benzenesulfonamide] | 0.9 | > 100 |  |
| CSc1ccc(-c2noc(C)c2-c2ccncc2)cc1 [Example 40, [5-Methyl-3-(4-methylthiophenyl)isoxazol-4-yl]-4-pyridine] | 91 | 2.3 |  |
| Cc1onc(-c2ccc(S(N)(=O)=O)cc2)c1-c1ccccc1 [Example 41, 4-[5-Methyl-4-phenylisoxazol-3-yl]benzenesulfonamide] | 57.5 | 81 |  |
| Cc1onc(-c2cc(F)cc(F)c2)c1-c1ccc(S(N)(=O)=O)cc1 [Example 42, 4-[3-(3,5-Difluorophenyl)-5-methylisoxazol-4-yl]benzenesulfonamide] | 22.5 | > 100 |  |

| SMILES | IC50 (COX-2) [µM] | IC50 (COX-1) [µM] | RAT PAW EDEMA % Inhibition (rat paw edema) [%] |
| --- | --- | --- | --- |
| Cc1onc(-c2ccc(Br)cc2)c1-c1ccc(S(N)(=O)=O)cc1 [Example 43, 4-[3-(4-Bromophenyl)-5-methyl-isoxazol-4-yl]benzenesulfonamide] | 0.6 | > 100 |  |
| COc1ccc(-c2noc(C(F)F)c2-c2ccc(S(N)(=O)=O)cc2)cc1F [Example 44, 4-[5-Difluoromethyl-3-(3-fluoro-4-methoxyphenyl)isoxazol-4-yl]benzenesulfonamide] | 1.7 | > 100 |  |
| COc1ccc(-c2noc(C(F)F)c2-c2ccc(S(N)(=O)=O)cc2)cc1 [Example 45, 4-[5-Difluoromethyl-3-(4-methoxyphenyl)isoxazol-4-yl]benzenesulfonamide] | < 0.1 | 16 |  |
| Cc1ccc(-c2noc(C(F)F)c2-c2ccc(S(N)(=O)=O)cc2)cc1 [Example 46, 4-[5-Difluoromethyl-3-(4-methylphenyl)isoxazol-4-yl]benzenesulfonamide] | 0.5 | 100 |  |
| CS(=O)(=O)c1ccc(-c2c(-c3ccccc3)noc2C(F)F)cc1 [Example 47, 5-Difluoromethyl-4-(4-methylsulfonylphenyl)-3-phenylisoxazole] | < 0.1 | > 100 | 24 |
| Cc1onc(-c2cccc(Cl)c2)c1-c1ccc(S(N)(=O)=O)cc1 [Example 48, 4-[3-(3-Chlorophenyl)-5-methylisoxazol-4-yl]benzenesulfonamide] | 0.3 | 93 |  |
| COC(=O)c1ccc(OCc2onc(-c3ccccc3)c2-c2ccc(S(N)(=O)=O)cc2)cc1 [Example 50, Methyl 4-[[4-[4-(aminosulfonyl)phenyl]-3-phenylisoxazol-5-yl]methoxy]benzoate] | < 0.1 | > 100 |  |
| NS(=O)(=O)c1ccc(-c2c(-c3ccccc3)noc2COc2ccc(C(=O)O)cc2)cc1 [Example 51, 4-[[4-[4-(Aminosulfonyl)phenyl]-3-phenylisoxazol-5-yl]methoxy]benzoic acid] | 19 | > 100 |  |
| NS(=O)(=O)c1ccc(-c2c(-c3ccccc3)noc2CC(=O)C(F)(F)F)cc1 [Example 52, 4-[3-Phenyl-5-(3,3,3-trifluoro-2-oxopropyl)isoxazol-4-yl]benzenesulfonamide] | 0.2 | 93 |  |
| CCc1noc(-c2ccccc2C)c1-c1ccc(S(N)(=O)=O)cc1 [Example 54, 4-[3-Ethyl-5-(2-methylphenyl)isoxazol-4-yl]benzenesulfonamide] | 1.8 | > 100 |  |
| NS(=O)(=O)c1ccc(-c2c(-c3cccc(F)c3)noc2CC(=O)O)cc1 [Example 55, [4-(4-Aminosulfonylphenyl)-3-(3-fluorophenyl)isoxazol-5-yl]acetic acid] | < 0.1 | > 100 |  |
| CSc1onc(-c2ccccc2)c1-c1ccc(S(N)(=O)=O)cc1 [Example 58, 4-[5-Methylthio-3-phenylisoxazol-4-yl]benzenesulfonamide] | < 0.1 | 14 |  |
| C[S+]([O-])c1onc(-c2ccccc2)c1-c1ccc(S(N)(=O)=O)cc1 (stereo not drawn) [Example 59, 4-[5-Methylsulfinyl-3-phenylisoxazol-4-yl]benzenesulfonamide] | < 0.1 | > 100 |  |
| NS(=O)(=O)c1ccc(-c2c(-c3ccccc3)noc2COCCO)cc1 [Example 60, 4-[5-(2-Hydroxyethyl)oxymethyl-3-phenylisoxazol-4-yl]benzenesulfonamide] | 0.2 | > 100 |  |
| CS(=O)(=O)c1ccc(-c2c(-c3ccccc3)noc2CO)cc1 [Example 61, 5-Hydroxymethyl-4-(4-methylsulfonyl)phenyl-3-phenyl-isoxazole] | 0.2 | > 100 |  |
| Cc1onc(-c2ccc(Cl)c(Cl)c2)c1-c1ccc(S(N)(=O)=O)cc1 [Example 67, 4-[5-Methyl-3-(3,4-dichlorophenyl)isoxazol-4-yl]benzenesulfonamide] | 0.3 | 36 |  |
| Cc1onc(-c2ccc(Cl)c(Cl)c2C(=O)O)c1-c1ccc(S(N)(=O)=O)cc1 [Example 68, 6-[4-[4-(aminosulfonyl)phenyl]-5-methylisoxazol-3-yl]-2,3-dichlorobenzoic acid] | 0.4 | > 100 |  |
